Measured values: US10174156B2, “Hyperbranched polyester with a hydrophobic nucleus for solubilizing poorly soluble active substances” (BASF SE, priority 2009, dated 2019)

Test: physchem
Settings: pH 7, aqueous buffer, thermodynamic from solid
Procedure: 2 g of polymer were weighed into a 50 ml beaker. Subsequently, 0.2 g of active ingredient in each case was weighed into the mixture in order to obtain an oversaturated solution. […] The mixture was then stirred at room temperature with the aid of a magnetic stirrer for 72 h. After a rest time of 1 h, excess (i.e. unsolubilized) active ingredient was removed by filtration. The clear or opaque solution thus obtained was subsequently analyzed for its active ingredient content by means of UV spectroscopy or HPLC.

Compound: Clc1ccccc1C(c1ccccc1)(c1ccccc1)n1ccnc1 [Clotrimazole]
- solubility at 72 h: < 100 µg/mL
